These are literature values, as cited in paper PMC7395068, “The evolution of strategies to minimise the risk of human drug-induced liver injury (DILI) in drug discovery and development” (Archives of Toxicology, 2020).

Data set [1] has as its system HepG2 C3A spheroid, BSEP, Glu/Gal in HepG2 cells, bioactivation. Particulars: cited from earlier work.
Data set [2] deals with THLE-Null and THLE-3A4 cells. The following applies: In vitro Assay; ref Gustafsson 2014; cited from earlier work.
In data set [3] the test system is rBsep. The following applies: In vitro Assay; ref Dawson 2012; cited from earlier work.
The subject of data set [4] is HepG2 cells, primary human hepatocytes. The following applies: In vitro Assay; ref Garside 2014; cited from earlier work.
For data set [5] the following is noted: cited from earlier work.
Data set [6] concerns human hepatocytes. The following applies: In vitro Assay; ref Xu 2008; cited from earlier work.
In data set [7] the test system is HepG2 cells. Particulars: In vitro Assay; ref O'Brien 2006; cited from earlier work.
Data set [8] concerns primary human hepatocytes, NIH3T3 fibroblasts, BSEP, CYP3A4. Particulars: In vitro Assay; ref Schadt 2015; cited from earlier work.
For data set [9], the system named is PHH spheroids. The following applies: In vitro Assay; ref Vorrink 2018; cited from earlier work.
For data set [10] the following is noted: ref Chen 2016; cited from earlier work.
Data set [11] has as its system HepG2 cells. The following applies: In vitro Assay; ref Persson 2013; cited from earlier work.
Data set [12] concerns THLE or HepG2 cells, isolated mitochondria, BSEP. The following applies: In vitro Assay; ref Aleo 2019; cited from earlier work.

Where two headings read alike, the source gives them in different places.

`Cc1c(N(C)C)c(=O)n(-c2ccccc2)n1C` [aminopyrine]: the “Bayesian Machine Learning” value in [1] (ref Williams 2019) was “+VE”.

`CC(C)(Oc1ccc(CCNC(=O)c2ccc(Cl)cc2)cc1)C(=O)O` [bezafibrate]: in data set [2], the THLE-Null entry was “-VE” and the THLE-Null/3A4 result is on record as “-VE”. Moreover, in data set [3], the “Inhibition of rBsep cutoff<1& cmax u>.2” value is reported as “-VE” and the “Inhibition of rBsep cutoff<3” value is on record as “-VE”. In addition, in data set [4], the “Cluster 1-6 +VE Assay” value is “-VE”. Also, the “In vivo DILI” value in [5] (ref Dawson 2012) is on record as “+VE”. Further, the “In vivo DILI” value in data set [5] (ref Garside 2014) is recorded as “+VE”. The “In vivo DILI” value in data set [5] (ref Gustafsson 2014) is “+VE”. Also, in [5] (ref O'Brien 2006), the “In vivo DILI” value was “-VE”. Further, the “In vivo DILI” value in [5] (ref Schadt 2015) is “-VE”. Also, the “In vivo DILI” value in [5] (ref Vorrink 2018) is listed as “-VE”. Besides, in [5] (ref Xu 2008), the “In vivo DILI” value is “-VE”. The “Structural based (HCI)” value in data set [6] is listed as “-VE”. In [7], the “Structural based (HCI)” value is on record as “+VE”. Also, in [8], the “Cellular toxicity (3T3 cells)” value is “-VE”, the “Combined Assay” value is reported as “-VE”, the “GSH adduct HML” value is given as “-VE” and the Hepatocyte cellular toxicity result was “-VE”. Also, in [8], the “MitoTox 3T3” value is “-VE”, the “TDI CYP3A4” value is given as “-VE” and the hBSEP inhibition entry is “-VE”. Besides, the “hLiMTs ATP <20 x Cmax” value in [9] was “-VE”.

For `CN1C[C@H](CNC(=O)OCc2ccccc2)C[C@@H]2c3cccc4c3c(cn4C)C[C@H]21` [metergoline], in [1] (ref Williams 2019), the “Bayesian Machine Learning” value is recorded as “-VE”.

On to `CN1Cc2c(N)cccc2C(c2ccccc2)C1` (stereo not drawn) [nomifensine], for which the THLE-Null entry in data set [2] is “-VE”. In data set [3], the “Inhibition of rBsep cutoff<1& cmax u>.2” value is “-VE”. Further, the “Cluster 1-6 +VE Assay” value in data set [4] is given as “-VE”. Besides, the “In vivo DILI” value in [5] (ref Aleo 2019) was “+VE”; in [5] (ref Dawson 2012) it was “+VE”; in data set [5] (ref Garside 2014), “+VE”; in data set [5] (ref Gustafsson 2014), “+VE”; in data set [5] (ref O'Brien 2006), “-VE”; in [5] (ref Persson 2013), “+VE”. Also, the “In vivo DILI” value in data set [5] (ref Vorrink 2018) and in [5] (ref Xu 2008) was “+VE” throughout. Also, the “Structural based (HCI)” value in [6], in data set [7] and in [11] was “-VE” in each case. Moreover, in data set [10], the “DILI +VE (5-8), DILI -VE (-4)” value is listed as “+VE”. The DILI severity category entry in data set [10] is recorded as “vMost-DILI-Concern”. Moreover, in data set [11], the Cluser analysis entry was “-VE”. Besides, in data set [12], the “Partition Hybrid HRM Score” value is reported as “+VE”. Also, the “Ro2 Hybrid HRM Score” value in [12] is listed as “-VE”. Further, the “hLiMTs ATP <20 x Cmax” value in data set [9] is “+VE (IC20 < 20 × Cmax.tot cut-off)”.

As for `CC(N/C(=N\C#N)Nc1ccncc1)C(C)(C)C` (stereo not drawn) [pinacidil], in data set [2], the THLE-Null result was “-VE” and the THLE-Null/3A4 result is “-VE”. Moreover, in data set [3], the “Inhibition of rBsep cutoff<1& cmax u>.2” value is reported as “-VE” and the “Inhibition of rBsep cutoff<3” value was “+VE”. In addition, in data set [4], the “Cluster 1-6 +VE Assay” value is recorded as “+VE”. Also, the “In vivo DILI” value in data set [5] (in vivo) is listed as “-VE”. Also, the “Structural based (HCI)” value in data set [6] is recorded as “-VE”. Also, the “Structural based (HCI)” value in data set [7] is recorded as “-VE”. In addition, in data set [11], the Cluser analysis result is listed as “-VE” and the “Structural based (HCI)” value is “-VE”. The “hLiMTs ATP <20 x Cmax” value in [9] is listed as “-VE”.

Take `CN(C)C(=O)Oc1ccc[n+](C)c1` [pyridostigmine]: the “Bayesian Machine Learning” value in data set [1] is recorded as “-VE”.

Consider `Cc1ncc(CO)c(CO)c1O` [pyridoxine], for which, in data set [2], the THLE-Null entry was “-VE”. Also, the THLE-Null/3A4 result in data set [2] is “-VE”. Further, in data set [3], the “Inhibition of rBsep cutoff<1& cmax u>.2” value is given as “-VE”. In data set [3], the “Inhibition of rBsep cutoff<3” value is listed as “-VE”. Further, the “Cluster 1-6 +VE Assay” value in data set [4] is on record as “-VE”. Moreover, the “In vivo DILI” value in data set [5] (ref Dawson 2012), in data set [5] (ref Garside 2014), in data set [5] (ref Gustafsson 2014), in [5] (ref O'Brien 2006), in data set [5] (ref Persson 2013) and in data set [5] (ref Vorrink 2018) was “-VE” each time. Moreover, in [5] (ref Xu 2008), the “In vivo DILI” value is listed as “-VE”. Moreover, the “Structural based (HCI)” value in data set [6] was “-VE”; in [7] it was “+VE”; in data set [11] it was “-VE”. Further, the “DILI +VE (5-8), DILI -VE (-4)” value in data set [10] is on record as “-VE”. Also, in data set [10], the DILI severity category entry is recorded as “vNo-DILI-Concern”. Moreover, the Cluser analysis entry in data set [11] is recorded as “-VE”. Besides, in data set [9], the “hLiMTs ATP <20 x Cmax” value is given as “-VE”.
